Measurements reported in PubChem BioAssay AID2060511 (Molecular Pharmacology Branch, DTP, NCI, 2025).

System: 422866-222-R5-J1-PDC spheroids with HUVEC/MSC, viability
Experiment: Anticancer human tumor 422866-222-R5-J1-PDC patient-derived pancreatic adenocarcinoma cell line growth inhibition [GQUAD]
Conditions: for IC50: curve of first compound; for viability, T/C: stronger effect = lower value
How it was run: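 Viability of tumor cells grown as complex spheroids with endothelial and stromal cells, exposed to drug combinations. Top concentration at or near clinical Cmax (else 10 microM), diluted in half-log increments.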

[1] = second compound 0.0316 µM, first compound 0.0316 µM
[2] = second compound 0.0316 µM, first compound 0.1 µM
[3] = second compound 0.0316 µM, first compound 0.316 µM
[4] = second compound 0.0316 µM, first compound 1 µM
[5] = second compound 0.0316 µM, first compound 3.16 µM
[6] = second compound 0.0316 µM, first compound 10 µM
[7] = second compound 0.1 µM, first compound 0.0316 µM
[8] = second compound 0.1 µM, first compound 0.1 µM
[9] = second compound 0.1 µM, first compound 0.316 µM
[10] = second compound 0.1 µM, first compound 1 µM
[11] = second compound 0.1 µM, first compound 3.16 µM
[12] = second compound 0.1 µM, first compound 10 µM
[13] = second compound 0.316 µM, first compound 0.0316 µM
[14] = second compound 0.316 µM, first compound 0.1 µM
[15] = second compound 0.316 µM, first compound 0.316 µM
[16] = second compound 0.316 µM, first compound 1 µM
[17] = second compound 0.316 µM, first compound 3.16 µM
[18] = second compound 0.316 µM, first compound 10 µM
[19] = second compound 1 µM, first compound 0.0316 µM
[20] = second compound 1 µM, first compound 0.1 µM
[21] = second compound 1 µM, first compound 0.316 µM
[22] = second compound 1 µM, first compound 1 µM
[23] = second compound 1 µM, first compound 3.16 µM
[24] = second compound 1 µM, first compound 10 µM
[25] = second compound 3.16 µM, first compound 0.0316 µM
[26] = second compound 3.16 µM, first compound 0.1 µM
[27] = second compound 3.16 µM, first compound 0.316 µM
[28] = second compound 3.16 µM, first compound 1 µM
[29] = second compound 3.16 µM, first compound 3.16 µM
[30] = second compound 3.16 µM, first compound 10 µM
[31] = second compound 10 µM, first compound 0.0316 µM
[32] = second compound 10 µM, first compound 0.1 µM
[33] = second compound 10 µM, first compound 0.316 µM
[34] = second compound 10 µM, first compound 1 µM
[35] = second compound 10 µM, first compound 3.16 µM
[36] = second compound 10 µM, first compound 10 µM
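Further: spheroids exposed to compounds for seven days before reading.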
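Wherever viability, T/C is given: percent viability relative to DMSO vehicle control taken as 100%.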

For COc1cccc2c1C(=O)c1c(O)c3c(c(O)c1C2=O)CC(O)(C(=O)CO)CC3OC1CC(N)C(O)C(C)O1 (stereo unspecified) + CN(C)c1ccc(Nc2c3ccc(NC(=O)CCN4CCCC4)cc3nc3cc(NC(=O)CCN4CCCC4)ccc23)cc1, the IC50 (second compound 0.0316 µM) was 0.596 µM, the IC50 (second compound 0.1 µM) was 0.613 µM and the IC50 (second compound 0.316 µM) was 0.9 µM. The IC50 (second compound 1 µM) was 0.76 µM, the IC50 (second compound 3.16 µM) was 0.562 µM and the IC50 (second compound 10 µM) was 1 µM. For the same compound, the viability, T/C [1] was 95.2%, the viability, T/C [2] was 66.8% and the viability, T/C [3] was 64.3%. For the same compound, the viability, T/C [4] was 42.9%, the viability, T/C [5] was 32% and the viability, T/C [6] was 32.3%. The viability, T/C [7] was 103%, the viability, T/C [8] was 73% and the viability, T/C [9] was 56.8%. The viability, T/C [10] was 48.8%, the viability, T/C [11] was 33.9% and the viability, T/C [12] was 37.9%. For the same compound, the viability, T/C [13] was 89.5%, the viability, T/C [14] was 66.3% and the viability, T/C [15] was 65.7%. It also gave a viability, T/C [16] of 48.3%, a viability, T/C [17] of 37.8% and a viability, T/C [18] of 37.5%. It also gave a viability, T/C [19] of 72.2%, a viability, T/C [20] of 59.5% and a viability, T/C [21] of 55.5%. It also gave a viability, T/C [22] of 51%, a viability, T/C [23] of 40.4% and a viability, T/C [24] of 33%. It also gave a viability, T/C [25] of 74.3%, a viability, T/C [26] of 68.5% and a viability, T/C [27] of 56%. For the same compound, the viability, T/C [28] was 44.8%, the viability, T/C [29] was 35.1% and the viability, T/C [30] was 36.5%. For the same compound, the viability, T/C [31] was 93%, the viability, T/C [32] was 69.4% and the viability, T/C [33] was 65.9%. For the same compound, the viability, T/C [34] was 48.1%, the viability, T/C [35] was 41.1% and the viability, T/C [36] was 33%.

In the case of O=C(c1cc(Cc2n[nH]c(=O)c3ccccc23)ccc1F)N1CCN(C(=O)C2CC2)CC1 + CN(C)c1ccc(Nc2c3ccc(NC(=O)CCN4CCCC4)cc3nc3cc(NC(=O)CCN4CCCC4)ccc23)cc1, the IC50 (second compound 0.0316 µM) is reported as over 10 µM, the IC50 (second compound 0.1 µM) is reported as over 10 µM and the IC50 (second compound 0.316 µM) is reported as over 10 µM. It also gave an IC50 (second compound 1 µM) of over 10 µM, an IC50 (second compound 3.16 µM) of over 10 µM and an IC50 (second compound 10 µM) of over 10 µM. It also gave a viability, T/C [1] of 108%, a viability, T/C [2] of 95.8% and a viability, T/C [3] of 96.3%. It also gave a viability, T/C [4] of 99.7%, a viability, T/C [5] of 75.7% and a viability, T/C [6] of 70.1%. It also gave a viability, T/C [7] of 90.3%, a viability, T/C [8] of 95.3% and a viability, T/C [9] of 84.9%. The viability, T/C [10] was 83%, the viability, T/C [11] was 93.2% and the viability, T/C [12] was 67.5%. It also gave a viability, T/C [13] of 86.4%, a viability, T/C [14] of 107% and a viability, T/C [15] of 79.7%. It also gave a viability, T/C [16] of 83.3%, a viability, T/C [17] of 79.8% and a viability, T/C [18] of 70.4%. It also gave a viability, T/C [19] of 80%, a viability, T/C [20] of 79.3% and a viability, T/C [21] of 78.3%. The viability, T/C [22] was 77.4%, the viability, T/C [23] was 74.5% and the viability, T/C [24] was 67.5%. It also gave a viability, T/C [25] of 87%, a viability, T/C [26] of 92.3% and a viability, T/C [27] of 86.5%. For the same compound, the viability, T/C [28] was 85.7%, the viability, T/C [29] was 85% and the viability, T/C [30] was 80.6%. The viability, T/C [31] was 81.8%, the viability, T/C [32] was 83.6% and the viability, T/C [33] was 87.4%. For the same compound, the viability, T/C [34] was 79.5%, the viability, T/C [35] was 83.6% and the viability, T/C [36] was 79.9%.

Work on O=c1[nH]cc(F)c(=O)[nH]1 + CN(C)c1ccc(Nc2c3ccc(NC(=O)CCN4CCCC4)cc3nc3cc(NC(=O)CCN4CCCC4)ccc23)cc1 yielded an IC50 (second compound 0.0316 µM) of over 10 µM, an IC50 (second compound 0.1 µM) of over 10 µM and an IC50 (second compound 0.316 µM) of over 10 µM. It also gave an IC50 (second compound 1 µM) of over 10 µM, an IC50 (second compound 3.16 µM) of over 10 µM and an IC50 (second compound 10 µM) of over 10 µM. The viability, T/C [1] was 96.8%, the viability, T/C [2] was 86.5% and the viability, T/C [3] was 97%. For the same compound, the viability, T/C [4] was 84.5%, the viability, T/C [5] was 82.2% and the viability, T/C [6] was 66.2%. The viability, T/C [7] was 99.7%, the viability, T/C [8] was 74.6% and the viability, T/C [9] was 104%. For the same compound, the viability, T/C [10] was 75.5%, the viability, T/C [11] was 71.2% and the viability, T/C [12] was 72%. The viability, T/C [13] was 88.6%, the viability, T/C [14] was 79% and the viability, T/C [15] was 75.4%. For the same compound, the viability, T/C [16] was 88.9%, the viability, T/C [17] was 67.3% and the viability, T/C [18] was 68.4%. The viability, T/C [19] was 88.6%, the viability, T/C [20] was 77% and the viability, T/C [21] was 86.5%. The viability, T/C [22] was 79%, the viability, T/C [23] was 70.8% and the viability, T/C [24] was 67.9%. It also gave a viability, T/C [25] of 78.8%, a viability, T/C [26] of 79.4% and a viability, T/C [27] of 86.2%. It also gave a viability, T/C [28] of 88.1%, a viability, T/C [29] of 65.9% and a viability, T/C [30] of 53.6%. For the same compound, the viability, T/C [31] was 91.3%, the viability, T/C [32] was 108% and the viability, T/C [33] was 93.8%. The viability, T/C [34] was 84%, the viability, T/C [35] was 75.2% and the viability, T/C [36] was 76.6%.
